Results published in patent publication US5190981A, “Formulation containing S(+) enantiomer of flurbiprofen or ketoprofen and method of use for oral administration for prevention and treatment of bone loss associated with periodontal disease” (Sepracor Inc., priority 1991, dated 1993).

Experiments:
[1] = Bioavailability of flurbiprofen enantiomers in toothpaste: five-way blinded crossover, blood levels over 24 h after toothbrushing, chiral HPLC; assay type: in vivo, human (healthy adult volunteers); conditions: for initial plasma concentrations of each enantiomer across formulations: from toothpaste formulation to toothpaste formulation; for initial plasma concentrations of each enantiomer across formulations / accumulation of enantiomers: data not shown; for accumulation of enantiomers: repeated use
Excerpt: The purpose of this study was to show how well subjects tolerated three strengths of S(+) flurbiprofen toothpaste (1%, 0.5% and 0.25%), as well as the relationship between dose and blood level of the active isomer in comparison with an identical formulation of racemic flurbiprofen (1%) or an intermediate formulation of 80% S(+) flurbiprofen and 20% R(-) flurbiprofen (1%). A toothpaste containing one of the three concentrations of S(+) flurbiprofen, the 1% intermediate formulation or 1% racemic flurbiprofen were used in the study.
The drug is an acid and, therefore, the formulation was adjusted to pH 5.6, in order to improve buccal absorption. The formulation also contained menthol or wintergreen in order to mask the slight bitter taste of the drug. Standard formulation techniques were used.
Eight healthy adult volunteers were selected as subjects for the five-way, blinded, crossover study of flurbiprofen blood levels over a 24 hour period following toothbrushing with toothpastes containing the different concentrations of S(+) flurbiprofen and R(-) flurbiprofen. Each volunteer brushed with about 1 g of a toothpaste formulation for 1 minute followed by rinsing twice daily for 3 days. On the fourth morning, brushing with 1 g of the toothpaste formulation was repeated and blood samples were collected for subsequent analysis at -0.25, 0.25, 1, 2, 4, 8, 12, 23 and 24 hours relative to this toothbrushing episode. Each treatment period was followed by a washout interval of 4 days before the next toothpaste formulation was provided.
The concentration of the individual enantiomers was determined by HPLC on chiral-APG (5μ. 100×4 mm). The mobile phase was 1% 2-propanol in 10 mM NaH2 PO4 buffer, pH 7.0, at 0.6 ml/min. The enantiomers were detected by fluorescence monitoring with excitation at 250 nm and emission at 315 nm. The individual enantiomers were detectable down to 5-10 ng/ml. Standard and calibration curves were prepared for each set of samples and an internal standard of S(+) ibuprofen was added to all samples. Pharmacokinetic calculations were non-compartmental and employed conventional data analysis (linear trapezoidal role) to determine the concentrations or total amounts for each enantiomer and formulation that were analyzed.
The results of this study are presented as follows: 1% by weight racemic flurbiprofen (1S, 1R); 1% by weight 80% S(+) flurbiprofen, 20% R(-) flurbiprofen as a eutectic mixture (2S, 2R); 1% by weight 95% S(+) flurbiprofen, 5% R(-) flurbiprofen (3S); 0.5% by weight 95% S(+) fluriprofen, 5% R(-) flurbiprofen (4S); and 0.25% by weight 95% S(+) flurbiprofen, 5% R(-) flurbiprofen (5S). It should be noted that approximately equivalent amounts (5 mg) of S(+)flurbiprofen were administered in results denoted 1S and 4S. The results from the present study have been further compared with calculations based on results from a previous study by Stalker et al. "Bioavailability of Flurbiprofen following Buccal Administration", Pharm Res. 8, 605-608 (1991). The calculated amounts of administered enantiomer in this previous study are 5 mg buccal S(+) flurbiprofen as a mouthwash (buccal S) or 5 mg PO S(+) flurbiprofen (PO S).

[2] = oral; cited from earlier work

Row | Compound | initial plasma concentrations of each enantiomer across formulations [1] | accumulation of enantiomers ([1]; toothpaste) | absorption of S(+) enantiomer alone vs as racemic mixture ([1]; comparison of 1S and 4S, toothpaste) | blood concentration and persistence, toothpaste vs mouthwash or PO ([1]; equivalent amounts of S(+) flurbiprofen, e.g. 1S and 4S compared to buccal S or PO S) | dose relationship of plasma concentrations, 0.25% to 0.5% ([1]; toothpaste between 0.25% and 0.5% by weight) | dose relationship of plasma concentrations at 1% ([1]; toothpaste, 1% by weight) | absorption when taken orally [2]
1 | C[C@@H](C(=O)O)c1ccc(-c2ccccc2)c(F)c1 [R(-) flurbiprofen] | approximately the same | no accumulation | – | – | – | – | –
2 | C[C@H](C(=O)O)c1ccc(-c2ccccc2)c(F)c1 [S(+) flurbiprofen] | approximately the same | no accumulation | preferentially absorbed when administered alone in a toothpaste formulation than when administered as a racemic mixture | higher and its availability is more persistent when in a toothpaste formulation | dose dependent relationship of plasma concentrations | non-linear at 1% by weight | readily absorbed
